From patent publication US20070092942A1, “Ubiquitin specific enzymes of family herpesviridae” (priority 2005, published 2007)

Key:
[1] = system: UL36^USP; assay: Electrophilic probe labeling of HSV-1 infected HFF cell lysates, immunoblot; type: binding; settings: for Labeling / reaction of UL36^USP by electrophilic probe: HSV-infected HFF lysates, immunoblot
Description: HFFs were infected with HSV-1 KOS at an MOI of 10 and harvested by trypsinolysis at the indicated times post infection. Cells were washed 1× in PBS and pelleted by centrifugation in a microcentrifuge at 3,000×g for 20 minutes at 4° C. Cells were lysed by adding 2× the pellet volume of NP40 lysis buffer (150 mM NaCl, 50 mM Tris pH 7.4, 5 mM MgCl2, 0.5 mM EDTA, 2 mM DTT, 2 mM ATP, 0.5% NP40) and rocking at 4° C. for 1 hour. Cell lysates were centrifuged at 12,000×g for 20 minutes at 4° C. Protein concentration of supernatants was established by Bradford assay and lysates were standardized to 5 μg/μl by the addition of the required volume of NP40 lysis buffer. For each labeling reaction, 50 μg of lysate was incubated with 0.8 μg of probe in a total volume of 60 μL of homogenization buffer (50 mM Tris pH 7.5, 5 mM MgCl2, 0.5 mM EDTA, 2 mM DTT, 2 mM ATP, 250 mM sucrose). For reactions involving NEM, lysates were incubated at room temperature for 30 minutes with 5 mM NEM prior to addition of probe. Reactions were incubated for 30 minutes at R.T. Samples were boiled in reducing sample buffer and separated by SDS-PAGE. Proteins were transferred to PVDF membranes and immunoblotted with mouse monoclonal anti-HA antibody (12CA5) at 1:4000 dilution followed by goat anti-mouse IgG-HRP (Southern Biotech) at 1: 10,000 dilution. Blots were developed using Western Lightning chemiluminescence reagent (Perkin Elmer).
To profile DUB activity during HSV-1 infection, we used HA-tagged Ub-vinylmethyl ester (HAUbVME) (Borodovsky et al., 2002). Human foreskin fibroblasts (HFFs) were infected with HSV-1 at a multiplicity of infection of 10, harvested at 4, 6, 9, 12, 22 and 30 hours post-infection (p.i.), and lysed.
To address whether UL36^USP labeling by HAUbVME was a consequence of the Ub or the VME moiety, we incubated lysates of HSV-infected HFFs at 24 hours p.i. with related electrophilic derivatives (Borodovsky et al., 2002). […] There are a number of Ub-like (UbL) proteins in eukaryotes (Larsen and Wang, 2002). This family of UbL proteins has diversified functionally to cover many cellular pathways: SUMO proteins function in nuclear signaling and transcription (Hay, 2005); ISG15 is an interferon-inducible gene product (Ritchie and Zhang, 2004); and the closest homolog of Ub, Nedd8, is an activator of the cullin family of E3 Ub ligases (Petroski and Deshaies, 2005; Willems et al., 2004). Probes derived from Ub and UbL modifiers target proteases that are either specific for a single Ub/UbL or selective for a limited number of these proteases (Borodovsky et al., 2002; Hemelaar et al., 2004). We explored the reactivity of UL36^USP with Ub and UbL-derived probes to determine its specificity. We incubated lysates of mock-infected and HSV-infected HFFs at 24 hours p.i. with either HAUbVME or with one of three UbL probes, HA-SUMO-1-VME, HA-ISG15-VME or FLAG-Nedd8-VS (FIG. 4B).

[2] = target: T1, EBV205 (Epstein-Barr virus, UniProt P03186); type: biochemical; settings: enzyme 100 pM, Ub-AMC 100 nM
T1 construct: encoding for AA 1-205 of EBV (EBV205) and AA 1-285 of mCMV (mCMV285); His-tag (pET28) (N); made in house; host or cells: E. coli BL21-DE3
Description: (§1) We next tested the ability of the enzymes to cleave Ub-AMC (Ub C-terminal 7-amido-4-methylcoumarin, Boston Biochem). UbAMC hydrolysis assays were performed in reaction buffer supplemented with BSA (50 μg/ml) by incubating the enzymes (100 pM) with a large excess of Ub-AMC (100 nM). […] To address this issue, we tested the potential of several inhibitors to block DUB activity in Ub-AMC hydrolysis assays. Enzymes were preincubated for 1 h with a 100-fold molar excess of electrophilic derivatives of Ub, SUMO, NEDD8, and ISG15, all carrying a VME moiety as the electrophile at their C-terminus.

[3] = target: T2, EBV205 (AA 1-205 of EBV BPLF1) (Epstein-Barr virus, UniProt P03186); type: binding
T2 construct: encoding for AA 1-205 of EBV (EBV205) and AA 1-285 of mCMV (mCMV285); His-tag (pET28) (N); made in house; host or cells: E. coli BL21-DE3
From the text: (§2) To investigate functionality of this minimal DUB consensus domain we cloned the relevant genomic fragments for heterologous expression and subsequent biochemical characterization. The corresponding DNA fragments, encoding for AA 1-205 of EBV (EBV205) and AA 1-285 of mCMV (mCMV285), were PCR-cloned into pET28 according to standard procedures. Following expression in E. coli BL21-DE3, the fragments bearing a N-terminal His-tag were purified using a Ni-NTA resin (Qiagen) and subsequently subjected to a gel filtration column (S75 HiLoad, Amersham Pharmacia Biotech) equilibrated in storage buffer (50 mM Tris, 50 mM KCl, 50 mM NaCl, 0.5 mM EDTA, 2 mM DTT, 10% (v/v) glycerol, pH 7.5) to achieve apparent homogeneity. To address whether the purified constructs display DUB activity, we used HA-tagged Ub-vinylmethyl ester (HAUbVME), a probe that acts as suicide substrate for DUBs by forming a thioether bond to the active site cysteine. Reactions were performed using final concentrations of 1 μM enzyme (EBV205 or mCMV285) in the absence and presence of 2 μM HAUbVME in reaction buffer (50 mM Tris, 100 mM NaCl, 1 mM DTT pH 7.5) for 30 min at 37° C. Following incubation, samples were boiled in reducing sample buffer and subjected to SDS-PAGE.
(§3) In the case of mCMV, we also constructed a longer variant that terminates at position 575 (mCMV575).

[4] = system: mCMV285, mCMV575; assay: UbAMC hydrolysis assay with mCMV285 and mCMV575; type: biochemical, mouse cytomegalovirus; settings: enzyme 100 pM, Ub-AMC 100 nM
Description: as §1

[5] = system: mCMV285, mCMV575 (mCMV UL36 homologue); assay: HAUbVME labeling of purified recombinant mCMV285 / mCMV575, SDS-PAGE and immunoblot; type: binding, mouse cytomegalovirus
From the text: as §2, §3

[6] = target: T3, His6UL36^USP (Human herpesvirus 1, UniProt P10220); assay: Cleavage of Ub-AMC by recombinant UL36^USP; type: biochemical, HSV-1; settings: 10 pmol inhibitor pre-incubated 30 minutes with ~0.1 pmol enzyme
T3 construct: amino acids 1 to 533 of the UL36 gene product from HHV HSV1; 6-His (pET-28a(+)) (N); 6-His (pET-28a(+)) (C); made in house; host or cells: E. coli BL21 or BL21 RIPL
Description: Recombinant UL36^USP and UL36^USP/C65A (˜0.1 pmol) were incubated in 125 μl kinetics buffer (50 mM HEPES, pH 7.5, 0.5 mM EDTA) supplemented with 1 mM DTT at room temperature for 10 minutes. To this was added 75 μl of Ub-AMC (250 nM in kinetics buffer) and AMC liberation was measured at 25° C. For inhibition experiments, one of UbVME, SUMO-VME, ISG15-VS, or Nedd8-VS (10 pmol) was incubated with recombinant UL36^USP (˜0.1 pmol) for 30 minutes at room temperature. To this was added 75 μl of Ub-AMC (250 nM in kinetics buffer) and AMC liberation was measured. Cleavage experiments were performed in triplicate. All fluorescence measurements were made using a Wallac Victor^3 1420 fluorescence/luminescence plate reader (Perkin Elmer) using 380 nm excitation and 460 nm emission wavelengths, with 5 second intervals between measurements. Data were exported as an Excel file and plotted as mean values of replicate experiments using Kaleidagraph v3.6 (Synergy Software).
In a typical eukaryotic cell, the presence of multiple DUBs, whose substrate pool and catalytic activities may overlap, confounds straightforward analysis of the activity of any one particular DUB. Although we have found excellent correlation between labeling of polypeptides with the Ub/UbL probes and their identification as active DUBs, the probes are covalent inactivators and cannot be used to assess enzymatic (i.e. catalytic) peptidase activity. To validate the activity of UL36^USP as a protease with specificity for Ub-modified substrates, we cloned a sequence spanning the 533 N-terminal amino acids of HSV-1 UL36^USP into a His-tagged expression vector (His6-UL36^USP). We also generated a point mutant of this construct in which the active site cysteine residue, Cys^65, was replaced by alanine (His6UL36^USP/C65A). The proteins were expressed, purified over Ni-NTA resin and evaluated for their ability to cleave Ub C-terminal 7-amido-4-methylcoumarin (Ub-AMC) (Dang et al., 1998). […] The results are consistent with the labeling experiments using UbL probes with HSV-1-infected lysates (FIG. 4B).

[7] = pretreatment with 10 mM NEM for 10 min
[8] = 1 μM enzyme, 2 μM HAUbVME, 30 min at 37° C.
[9] = preincubated 1 h with 100-fold molar excess of inhibitor

CCN1C(=O)C=CC1=O [NEM, N-ethylmaleimide]
Effect on labeling of the 57 kDa polypeptide with HAUbVME ([1]; HSV-1 infected HFF lysates, 5 mM NEM 30 minutes prior to probe): inhibited | Sensitivity of UbAMC hydrolysis by EBV205 to NEM [2]: sensitive to NEM | Effect on labeling of EBV205 with HAUbVME probe [3, 7]: completely blocked labeling | Sensitivity of UbAMC hydrolysis by mCMV285 / mCMV575 to NEM [4]: sensitive to NEM | Effect on reaction of mCMV575 with HAUbVME ([5]; mCMV575 variant): NEM-sensitive | Effect on labeling of mCMV285 with HAUbVME probe [5, 7]: completely blocked labeling

FLAG-Nedd8-VS: UbL probe (9.7 kDa), FLAG-tagged Nedd8 vinylsulfone
Labeling / reaction of UL36^USP by electrophilic probe [1]: did not observe reaction

HA-ISG15-VME: UbL probe (18.8 kDa), HA-tagged ISG15 vinylmethyl ester
Labeling / reaction of UL36^USP by electrophilic probe [1]: did not observe reaction

HA-SUMO-1-VME: UbL probe (12.8 kDa), HA-tagged SUMO-1 vinylmethyl ester
Labeling / reaction of UL36^USP by electrophilic probe [1]: did not observe reaction

HAUbVME: HA-tagged Ub-vinylmethyl ester, electrophilic Ub probe forming thioether bond to DUB active site cysteine
Labeling / reaction of UL36^USP by electrophilic probe [1]: observed labeling | Covalent modification of EBV205 by probe (shift in electrophoretic mobility) [3, 8]: covalent modification | Covalent modification of mCMV285 by probe (shift in electrophoretic mobility) [5, 8]: covalent modification

HAUbVS: HAUb-vinylsulfone, Ub-derived electrophilic probe
Labeling / reaction of UL36^USP by electrophilic probe [1]: comparably robust labeling

ISG15-VS: electrophilic ISG15 derivative used as inhibitor
Inhibition of Ub-AMC cleavage by His6UL36^USP [6]: rates nearly identical to hydrolysis in the absence of these inhibitors

Nedd8-VS: electrophilic Nedd8 vinylsulfone derivative used as inhibitor
Inhibition of Ub-AMC cleavage by His6UL36^USP [6]: rates nearly identical to hydrolysis in the absence of these inhibitors

SUMO-1-VS: electrophilic SUMO-1 derivative used as inhibitor
Inhibition of Ub-AMC cleavage by His6UL36^USP [6]: rates nearly identical to hydrolysis in the absence of these inhibitors

UbVME: electrophilic derivative of Ub carrying a VME moiety at its C-terminus, covalent DUB inhibitor
Inhibition of UbAMC hydrolytic activity of EBV205 [2, 9]: completely inhibited | Inhibition of Ub-AMC cleavage by His6UL36^USP [6]: complete inhibition | Inhibition of UbAMC hydrolytic activity of mCMV285 / mCMV575 [4, 9]: completely inhibited
